Data taken from BindingDB's records for doi:10.1021/jm970682+ (University of Louvain, 1998).
pKi: −log10 of the molar value.

Experiments:
[1] = The compound was tested for the affinity on sigma 1 receptor using [3H]- pentazocine as radioligand
[2] = as above; remark: listed apart in the source

| Compound | pKi [1] | pKi [2] |
| --- | --- | --- |
| O=c1oc2cc(Cc3ccccc3)ccc2n1CCN1CCOCC1 [6-Benzyl-3-(2-morpholin-4-yl-ethyl)-3H-benzooxazol-2-one] | 7.14 |  |
| CCC(=O)c1ccc2c(c1)sc(=O)n2C(=O)CC [3,6-Dipropionyl-3H-benzothiazol-2-one] |  | 7.20 |
| CCC(=O)c1ccc2c(c1)sc(=O)n2CCN1CCCCC1 [3-(2-Piperidin-1-yl-ethyl)-6-propionyl-3H-benzothiazol-2-one] | 7.33 |  |
| CN(C)CCn1c(=O)oc2cc(C(=O)c3ccccc3)ccc21 [6-Benzoyl-3-(2-dimethylamino-ethyl)-3H-benzooxazol-2-one] | 6.44 |  |
| O=C(c1ccccc1)c1ccc2c(c1)sc(=O)n2CCN1CCCC1 [6-Benzoyl-3-(2-pyrrolidin-1-yl-ethyl)-3H-benzothiazol-2-one] | 7.27 |  |
| CCC(=O)c1ccc2c(c1)sc(=O)n2CCN1CCCC1 [6-Propionyl-3-(2-pyrrolidin-1-yl-ethyl)-3H-benzothiazol-2-one] | 6.24 |  |
| CCCCC(=O)c1ccc2c(c1)sc(=O)n2CCN(C)C [3-(2-Dimethylamino-ethyl)-6-pentanoyl-3H-benzothiazol-2-one] | 6.20 |  |
| CCC(=O)c1ccc2c(c1)oc(=O)n2CCN1CCCCC1 [3-(2-Piperidin-1-yl-ethyl)-6-propionyl-3H-benzooxazol-2-one] | 7.14 |  |
| CCCc1ccc2c(c1)sc(=O)n2CCN1CCCCC1 [3-(2-Piperidin-1-yl-ethyl)-6-propyl-3H-benzothiazol-2-one] | 9.22 |  |
